Where a name gives a salt, the structure may show the parent alone.
Columns and labels:
Assay in all cases: Anti-proliferation assay (ATPLite), Chalice synergy score
Format in all cases: cell-based
HCC-1937 = conditions: Compound 1 in combination with the named second active agent, 72 h, mean of n = 3 experiments in triplicate
Text: (§1) Cells were thawed from a liquid nitrogen preserved state.
(§2) The calculation for synergy score is provided below.
(§3) If T≧V0:100*[1−(T−V0)/(V−V0)]

HCC-1806 = conditions: Compound 1 in combination with the named second active agent, 72 h, mean of n = 3 experiments in triplicate
Text: as §1, §2, §3

BT-474 = conditions: Compound 1 in combination with the named second active agent, 72 h, mean of n = 3 experiments in triplicate
Text: as §1, §2, §3

HCC-1428 = conditions: Compound 1 in combination with the named second active agent, 72 h, mean of n = 3 experiments in triplicate
Text: as §1, §2, §3

HCC-1500 = system: HCC-1500; parameters: scale not given here; conditions: Compound 1 in combination with the named second active agent, 72 h, mean of n = 3 experiments in triplicate
Text: as §1, §2, §3

BT-20 = system: BT-20; parameters: scale not given here; conditions: Compound 1 in combination with the named second active agent, 72 h, mean of n = 3 experiments in triplicate
Text: as §1, §2, §3

HCC-1187 = system: HCC-1187; parameters: scale not given here; conditions: Compound 1 in combination with the named second active agent, 72 h, mean of n = 3 experiments in triplicate
Text: as §1, §2, §3

MDA-MB-436 = conditions: Compound 1 in combination with second active agent, mean self-cross + 2σ threshold 1.91
Text: as §1, §2, §3

MCF7 = conditions: Compound 1 in combination with second active agent, mean self-cross + 2σ threshold 3.07
Text: as §1, §2, §3

HCC70 = conditions: Compound 1 in combination with second active agent; HCC-70; mean self-cross + 2σ threshold 3.45
Text: as §1, §2, §3

MDA-MB-231 = conditions: Compound 1 in combination with second active agent, mean self-cross + 2σ threshold 2.61
Text: as §1, §2, §3

MDA-MB-157 = conditions: Compound 1 in combination with second active agent, mean self-cross + 2σ threshold 4.68
Text: as §1, §2, §3

Hs-578-T = conditions: Compound 1 in combination with second active agent, mean self-cross + 2σ threshold 4.09
Text: as §1, §2, §3

MDA-MB-468 = conditions: Compound 1 in combination with second active agent, mean self-cross + 2σ threshold 4.66
Text: as §1, §2, §3

BT-549 = conditions: Compound 1 in combination with the named second active agent, 72 h, mean of n = 3 experiments in triplicate
Text: as §1, §2, §3

Row | Compound | Synergy score (HCC-1937) | Synergy score (HCC-1806) | Synergy score (BT-474) | Synergy score (HCC-1428) | Synergy score (HCC-1500) | Synergy score (BT-20) | Synergy score (HCC-1187) | Synergy score (MDA-MB-436) | Synergy score (MCF7) | Synergy score (HCC70) | Synergy score (MDA-MB-231) | Synergy score (MDA-MB-157) | Synergy score (Hs-578-T) | Synergy score (MDA-MB-468) | Synergy score (BT-549)
1 | CCN(CCO)CCCOc1ccc2c(Nc3cc(CC(=O)Nc4cccc(F)c4)[nH]n3)ncnc2c1 [AZD1152-HQPA (Barasertib)] | 2.29 | 1.32 | 1.51 | 1.95 | 5.73 | 6.90 | 6.69 | – | – | – | – | – | – | – | –
2 | CCN(CCO)CCCOc1ccc2c(Nc3cc(CC(=O)Nc4cccc(F)c4)[nH]n3)ncnc2c1 [AZD1152-HQPA(Barasertib)] | – | – | – | – | – | – | – | 5.60 | 2.57 | 9.50 | 1.42 | 1.81 | 2.43 | 9.13 | –
3 | CC[C@@H]1C(=O)N(C)c2cnc(Nc3ccc(C(=O)NC4CCN(C)CC4)cc3OC)nc2N1C1CCCC1 [BI 2536] | 16.20 | 0.43 | 9.25 | – | 4.47 | 5.18 | 3.28 | 2.95 | 3.30 | 12.60 | 2.92 | 5.08 | 4.48 | 9.61 | 6.91
4 | O=C(Nc1cccc(Nc2ncc(Br)c(NCCc3c[nH]cn3)n2)c1)N1CCCC1 [BX-912] | 0.44 | 0.57 | 0.87 | 2.05 | 2.11 | 1.32 | 4.10 | 2.50 | 0.69 | 6.05 | – | 6.65 | 6.07 | 8.29 | 1.52
5 | O=C(/C=C/c1cccc(S(=O)(=O)Nc2ccccc2)c1)NO [Belinostat] | – | – | – | – | – | – | – | 7.84 | 7.66 | 10.10 | 12.40 | 7.58 | 7.48 | 6.75 | –
6 | O=C(NC(NC(=S)Nc1ccc(F)c([N+](=O)[O-])c1)C(Cl)(Cl)Cl)C(c1ccccc1)c1ccccc1 (centres unmarked) [CGK733] | 1.48 | 1.51 | – | 0.82 | 0.55 | 0.72 | 2.01 | 0.84 | 0.66 | 3.03 | 1.64 | 1.88 | 2.45 | – | 1.74
7 | N.N.O=C([O-])C1(C(=O)[O-])CCC1.[Pt+2] [Carboplatin] | 2.46 | 0.44 | 0.30 | 0.52 | – | 0.98 | 2.20 | 1.10 | 0.80 | 2.26 | 0.45 | 1.77 | 1.65 | 7.18 | 0.72
8 | N#Cc1c(O)c2c(-c3ccc(-c4ccccc4O)cc3)csc2[nH]c1=O [Compound A769662] | 0.07 | 0.54 | – | 0.34 | 0.80 | 0.11 | 3.70 | 0.06 | 0.46 | 0.07 | 0.17 | 0.70 | 0.39 | 0.77 | 0.29
9 | C[C@@H](Oc1cc(-c2cnn(C3CCNCC3)c2)cnc1N)c1c(Cl)ccc(F)c1Cl [Crizotinib] | 2.90 | 3.08 | 1.07 | – | – | 2.70 | 2.32 | 1.30 | 3.06 | 3.31 | – | 2.97 | – | – | 0.94
10 | COc1cccc2c1C(=O)c1c(O)c3c(c(O)c1C2=O)C[C@@](O)(C(=O)CO)C[C@@H]3O[C@H]1C[C@H](N)[C@H](O)[C@H](C)O1 [Doxorubicin Hcl, Doxorubicin HCl] | 6.92 | 3.55 | 1.25 | 0.96 | 2.70 | 3.96 | 4.45 | 3.89 | – | 4.00 | – | 8.50 | 5.85 | 6.36 | 4.78
11 | O=C(/C=C/c1cccnc1)NCCCCC1CCN(C(=O)c2ccccc2)CC1 [FK-866] | 0.60 | 0.00 | 0.60 | 0.20 | 1.15 | 0.30 | 0.25 | 0.97 | 0.04 | 0.30 | – | – | 5.32 | 0.28 | 0.11
12 | CC1=C(C(=O)Nc2cc3cn[nH]c3cc2F)C(c2ccc(C(F)(F)F)cc2)CC(=O)N1 (centres unmarked) [GSK429286A] | 0.05 | 0.51 | – | – | 0.19 | – | 4.54 | 0.57 | 0.19 | – | 2.14 | 1.95 | 3.35 | 0.13 | 1.72
13 | Nc1ccn([C@@H]2O[C@H](CO)[C@@H](O)C2(F)F)c(=O)n1 [Gemcitabine Hydrochloride] | 3.78 | 0.84 | 0.17 | – | 3.72 | 1.85 | 1.83 | 3.05 | 0.38 | – | 2.51 | 2.53 | 0.96 | 5.52 | 1.86
14 | C[C@@H]1CN(CC(=O)Nc2ccc3c(c2)Cc2cccc(-c4cc(=O)cc(N5CCOCC5)o4)c2S3)C[C@H](C)O1 [KU-60019] | 0.04 | 0.38 | – | 0.11 | 0.98 | 0.05 | 1.24 | 0.13 | 0.04 | 0.21 | 0.08 | 0.13 | 0.11 | 0.19 | 0.18
15 | NS(=O)(=O)OC[C@@H]1C[C@@H](n2ccc3c(N[C@H]4CCc5ccccc54)ncnc32)C[C@@H]1O [MLN-4924] | 9.15 | 2.90 | 8.59 | 3.68 | 1.31 | 1.78 | 7.09 | – | 0.94 | 0.46 | – | 6.73 | 3.55 | 15.10 | 2.83
16 | Nc1ccccc1NC(=O)c1ccc(CNC(=O)OCc2cccnc2)cc1 [MS-275] | – | – | – | – | – | – | – | 7.83 | 7.69 | 9.37 | 11.70 | 8.10 | 8.44 | 9.25 | –
17 | C/C=C1\NC(=O)[C@H]2CSSCC/C=C/[C@H](CC(=O)N[C@H](C(C)C)C(=O)N2)OC(=O)[C@H](C(C)C)NC1=O [Romidepsin] | – | – | – | – | – | – | – | 5.84 | – | 6.74 | 9.27 | 5.71 | – | 7.26 | –
18 | CNC(=O)c1cc(Oc2ccc(NC(=O)Nc3ccc(Cl)c(C(F)(F)F)c3)cc2)ccn1 [Sorafenib] | 2.10 | – | 2.32 | – | 0.69 | 1.16 | – | – | 1.18 | 2.51 | 1.55 | 0.56 | 1.65 | – | 0.00
19 | COc1cc2nccc(Oc3ccc(NC(=O)C4(C(=O)Nc5ccc(F)cc5)CC4)cc3)c2cc1OC [XL184] | 2.15 | 1.44 | 1.51 | 1.19 | 1.20 | 3.67 | 1.29 | 0.90 | 4.34 | 1.47 | – | – | 3.19 | 1.84 | 0.52

— patent publication US9737535B2, “Methods for treating cancer using TOR kinase inhibitor combination therapy comprising administering substituted pyrazino[2,3-b]pyrazines” (Signal Pharmaceuticals, LLC, priority 2014, dated 2017)
